# In ChEMBL document CHEMBL4251595, “Green approach for the synthesis of thiophenyl pyrazoles and isoxazoles by adopting 1,3-dipolar cycloaddition methodology and their antimicrobial activity” (2018):
# Activity calls are given as the source filed them. No cut-off for these calls is given here.
# Legend:
# Assay type in all cases: functional
# [1] = test system: Aspergillus niger; test: Antifungal activity against Aspergillus niger assessed as zone of inhibition at 100 ug/well after 48 hrs by agar well diffusion method; settings: for zone of inhibition at 100 µg/disc: read-out: DIZ
# [2] = test system: Staphylococcus aureus; test: Antimicrobial activity against Staphylococcus aureus assessed as zone of inhibition at 75 ug/well after 24 hrs by agar well diffusion method; settings: for zone of inhibition at 75 µg/disc: read-out: DIZ
# [3] = test system: Staphylococcus aureus; test: Antimicrobial activity against Staphylococcus aureus assessed as zone of inhibition at 50 ug/well after 24 hrs by agar well diffusion method; settings: for zone of inhibition at 50 µg/disc: read-out: DIZ
# [4] = test system: Pseudomonas aeruginosa; test: Antimicrobial activity against Pseudomonas aeruginosa assessed as zone of inhibition at 50 ug/well after 24 hrs by agar well diffusion method; settings: for zone of inhibition at 50 µg/disc: read-out: DIZ
# [5] = test system: Pseudomonas aeruginosa; test: Antimicrobial activity against Pseudomonas aeruginosa assessed as zone of inhibition at 75 ug/well after 24 hrs by agar well diffusion method; settings: for zone of inhibition at 75 µg/disc: read-out: DIZ
# [6] = test system: Klebsiella pneumoniae; test: Antimicrobial activity against Klebsiella pneumoniae assessed as zone of inhibition at 75 ug/well after 24 hrs by agar well diffusion method; settings: for zone of inhibition at 75 µg/disc: read-out: DIZ
# [7] = test system: Klebsiella pneumoniae; test: Antimicrobial activity against Klebsiella pneumoniae assessed as zone of inhibition at 50 ug/well after 24 hrs by agar well diffusion method; settings: for zone of inhibition at 50 µg/disc: read-out: DIZ
# [8] = test system: Aspergillus niger; test: Antifungal activity against Aspergillus niger assessed as zone of inhibition at 50 ug/well after 48 hrs by agar well diffusion method; settings: for zone of inhibition at 50 µg/disc: read-out: DIZ
# [9] = test system: Bacillus subtilis; test: Antimicrobial activity against Bacillus subtilis assessed as zone of inhibition at 50 ug/well after 24 hrs by agar well diffusion method; settings: for zone of inhibition at 50 µg/disc: read-out: DIZ
# [10] = test system: Pseudomonas aeruginosa; test: Antimicrobial activity against Pseudomonas aeruginosa assessed as zone of inhibition at 100 ug/well after 24 hrs by agar well diffusion method; settings: for zone of inhibition at 100 µg/disc: read-out: DIZ
# [11] = test system: Klebsiella pneumoniae; test: Antimicrobial activity against Klebsiella pneumoniae assessed as zone of inhibition at 100 ug/well after 24 hrs by agar well diffusion method; settings: for zone of inhibition at 100 µg/disc: read-out: DIZ
# [12] = test system: Bacillus subtilis; test: Antimicrobial activity against Bacillus subtilis assessed as zone of inhibition at 100 ug/well after 24 hrs by agar well diffusion method; settings: for zone of inhibition at 100 µg/disc: read-out: DIZ
# [13] = test system: Penicillium chrysogenum; test: Antifungal activity against Penicillium chrysogenum assessed as zone of inhibition at 50 ug/well after 48 hrs by agar well diffusion method; settings: for zone of inhibition at 50 µg/disc: read-out: DIZ
# [14] = test system: Bacillus subtilis; test: Antimicrobial activity against Bacillus subtilis assessed as zone of inhibition at 75 ug/well after 24 hrs by agar well diffusion method; settings: for zone of inhibition at 75 µg/disc: read-out: DIZ
# [15] = test system: Penicillium chrysogenum; test: Antifungal activity against Penicillium chrysogenum assessed as zone of inhibition at 100 ug/well after 48 hrs by agar well diffusion method; settings: for zone of inhibition at 100 µg/disc: read-out: DIZ
# [16] = test system: Staphylococcus aureus; test: Antimicrobial activity against Staphylococcus aureus assessed as zone of inhibition at 100 ug/well after 24 hrs by agar well diffusion method; settings: for zone of inhibition at 100 µg/disc: read-out: DIZ
# [17] = test system: Penicillium chrysogenum; test: Antifungal activity against Penicillium chrysogenum assessed as zone of inhibition at 75 ug/well after 48 hrs by agar well diffusion method; settings: for zone of inhibition at 75 µg/disc: read-out: DIZ
# [18] = test system: Aspergillus niger; test: Antifungal activity against Aspergillus niger assessed as zone of inhibition at 75 ug/well after 48 hrs by agar well diffusion method; settings: for zone of inhibition at 75 µg/disc: read-out: DIZ
Structure (SMILES),diameter of the inhibition zone (DIZ) [2],diameter of the inhibition zone (DIZ) [3],diameter of the inhibition zone (DIZ) [4],diameter of the inhibition zone (DIZ) [5],diameter of the inhibition zone (DIZ) [8],diameter of the inhibition zone (DIZ) [10],diameter of the inhibition zone (DIZ) [13],zone of inhibition at 100 µg/disc [1] [mm],zone of inhibition at 75 µg/disc [2] [mm],zone of inhibition at 75 µg/disc [6] [mm],zone of inhibition at 50 µg/disc [7] [mm],zone of inhibition at 50 µg/disc [8] [mm],zone of inhibition at 50 µg/disc [9] [mm],zone of inhibition at 100 µg/disc [11] [mm],zone of inhibition at 100 µg/disc [12] [mm],zone of inhibition at 75 µg/disc [14] [mm],zone of inhibition at 100 µg/disc [15] [mm],zone of inhibition at 100 µg/disc [16] [mm],zone of inhibition at 75 µg/disc [17] [mm],zone of inhibition at 75 µg/disc [18] [mm],other results
Cc1ccc(C2ON=C(c3ccccc3)C2S(=O)(=O)NC(=O)c2ccc(Cl)s2)cc1 (stereo not drawn),inactive,inactive,inactive,inactive,inactive,inactive,inactive,–,–,–,–,–,–,–,–,–,–,–,–,–,diameter of the inhibition zone (DIZ) [1]: inactive; diameter of the inhibition zone (DIZ) [6]: inactive; diameter of the inhibition zone (DIZ) [7]: inactive; diameter of the inhibition zone (DIZ) [9]: inactive; diameter of the inhibition zone (DIZ) [11]: inactive; diameter of the inhibition zone (DIZ) [12]: inactive; diameter of the inhibition zone (DIZ) [14]: inactive; diameter of the inhibition zone (DIZ) [15]: inactive; diameter of the inhibition zone (DIZ) [16]: inactive; diameter of the inhibition zone (DIZ) [17]: inactive; diameter of the inhibition zone (DIZ) [18]: inactive
Cc1ccc(-c2onc(-c3ccccc3)c2S(=O)(=O)NC(=O)c2cccs2)cc1,–,–,inactive,–,–,–,–,18,14,20,16,13,18,21,23,20,16,16,12,15,zone of inhibition at 50 µg/disc [3]: 12 mm; zone of inhibition at 75 µg/disc [5]: 9 mm; zone of inhibition at 100 µg/disc [10]: 12 mm; zone of inhibition at 50 µg/disc [13]: 10 mm
Cc1ccc(-c2onc(-c3ccccc3)c2S(=O)(=O)NC(=O)c2ccc(Cl)s2)cc1,–,–,–,–,–,–,–,26,17,22,17,18,21,24,25,23,18,19,16,21,zone of inhibition at 50 µg/disc [3]: 13 mm; zone of inhibition at 50 µg/disc [4]: 8 mm; zone of inhibition at 75 µg/disc [5]: 10 mm; zone of inhibition at 100 µg/disc [10]: 14 mm; zone of inhibition at 50 µg/disc [13]: 14 mm
O=C(NS(=O)(=O)C1C(c2ccccc2)=NOC1c1ccc([N+](=O)[O-])cc1)c1cccs1 (stereo not drawn),–,–,inactive,inactive,inactive,inactive,inactive,13,12,10,9,–,15,11,20,16,10,15,8,10,zone of inhibition at 50 µg/disc [3]: 11 mm
O=C(NS(=O)(=O)c1c(-c2ccccc2)nn(-c2ccccc2)c1-c1ccccc1)c1cccs1,–,–,–,–,–,–,–,20,18,20,18,15,22,23,26,23,16,20,14,16,zone of inhibition at 50 µg/disc [3]: 15 mm; zone of inhibition at 50 µg/disc [4]: 9 mm; zone of inhibition at 75 µg/disc [5]: 10 mm; zone of inhibition at 100 µg/disc [10]: 12 mm; zone of inhibition at 50 µg/disc [13]: 12 mm
O=C(NS(=O)(=O)C1C(c2ccccc2)=NN(c2ccccc2)C1c1ccc([N+](=O)[O-])cc1)c1cccs1 (stereo not drawn),inactive,inactive,inactive,inactive,inactive,inactive,inactive,15,–,11,9,–,12,13,17,14,12,9,9,12,–
Cc1ccc(C2C(S(=O)(=O)NC(=O)c3ccc(Cl)s3)C(c3ccccc3)=NN2c2ccccc2)cc1 (stereo not drawn),inactive,inactive,inactive,inactive,inactive,inactive,inactive,–,–,–,–,–,–,–,–,–,–,–,–,–,diameter of the inhibition zone (DIZ) [1]: inactive; diameter of the inhibition zone (DIZ) [6]: inactive; diameter of the inhibition zone (DIZ) [7]: inactive; diameter of the inhibition zone (DIZ) [9]: inactive; diameter of the inhibition zone (DIZ) [11]: inactive; diameter of the inhibition zone (DIZ) [12]: inactive; diameter of the inhibition zone (DIZ) [14]: inactive; diameter of the inhibition zone (DIZ) [15]: inactive; diameter of the inhibition zone (DIZ) [16]: inactive; diameter of the inhibition zone (DIZ) [17]: inactive; diameter of the inhibition zone (DIZ) [18]: inactive
O=C(NS(=O)(=O)c1c(-c2ccccc2)nn(-c2ccccc2)c1-c1ccccc1)c1ccc(Cl)s1,–,–,–,–,–,–,–,25,21,25,23,18,25,27,32,28,17,24,15,21,zone of inhibition at 50 µg/disc [3]: 19 mm; zone of inhibition at 50 µg/disc [4]: 14 mm; zone of inhibition at 75 µg/disc [5]: 16 mm; zone of inhibition at 100 µg/disc [10]: 19 mm; zone of inhibition at 50 µg/disc [13]: 13 mm
O=C(NS(=O)(=O)C1C(c2ccccc2)=NN(c2ccccc2)C1c1ccccc1)c1ccc(Cl)s1 (stereo not drawn),inactive,inactive,inactive,inactive,–,inactive,inactive,13,–,–,–,8,8,11,15,11,9,–,–,11,diameter of the inhibition zone (DIZ) [6]: inactive; diameter of the inhibition zone (DIZ) [7]: inactive; diameter of the inhibition zone (DIZ) [16]: inactive; diameter of the inhibition zone (DIZ) [17]: inactive
O=C(NS(=O)(=O)C1C(c2ccccc2)=NN(c2ccccc2)C1c1ccc([N+](=O)[O-])cc1)c1ccc(Cl)s1 (stereo not drawn),inactive,inactive,inactive,inactive,–,inactive,inactive,17,–,13,12,10,13,14,19,15,14,10,10,14,–
O=C(NS(=O)(=O)C1C(c2ccccc2)=NOC1c1ccccc1)c1cccs1 (stereo not drawn),inactive,inactive,inactive,inactive,inactive,inactive,inactive,–,–,–,–,–,7,9,13,10,–,–,–,–,diameter of the inhibition zone (DIZ) [1]: inactive; diameter of the inhibition zone (DIZ) [6]: inactive; diameter of the inhibition zone (DIZ) [7]: inactive; diameter of the inhibition zone (DIZ) [15]: inactive; diameter of the inhibition zone (DIZ) [16]: inactive; diameter of the inhibition zone (DIZ) [17]: inactive; diameter of the inhibition zone (DIZ) [18]: inactive
